Activity calls are given as the source filed them. No cut-off for these calls is given here.
Assays:
[1] = test system: Trypanosoma brucei; experiment: Antitrypanosomal activity against bloodstream form of Trypanosoma brucei s427 after 72 hrs by MTT assay; format: functional, organism-based; details: s427, 72 h
[2] = test system: L6; experiment: Cytotoxicity against rat L6 cells after 70 hrs by alamar blue assay; format: cell-based; details: L6, 70 h
[3] = test system: Trypanosoma brucei rhodesiense; experiment: Antitrypanosomal activity against bloodstream form of Trypanosoma brucei rhodesiense STIB900 after 70 hrs by alamar blue assay; format: functional, organism-based; details: STIB900, 70 h
[4] = test system: Trypanosoma brucei rhodesiense; experiment: Antitrypanosomal activity against bloodstream form of Trypanosoma brucei rhodesiense STIB900 infected in NMRI mouse assessed as day of parasitemia relapse at 50 mg/kg, ip qd for 4 consecutive days; format: functional
[5] = test system: Trypanosoma brucei rhodesiense; experiment: Antitrypanosomal activity against bloodstream form of Trypanosoma brucei rhodesiense STIB900 infected in NMRI mouse assessed as suppression of parasitemia level in mouse tail blood at 5 mg/kg, ip qd for 4 consecutive days measured 5 days post infection; format: functional, organism-based; set-up: dose 5 mg/kg
[6] = test system: Trypanosoma brucei rhodesiense; experiment: Antitrypanosomal activity against bloodstream form of Trypanosoma brucei rhodesiense STIB900 infected in NMRI mouse assessed as suppression of parasitemia level in mouse tail blood at 50 mg/kg, ip qd for 4 consecutive days measured 5 days post infection; format: functional, organism-based; set-up: dose 50 mg/kg
[7] = Chemical stability of the compound in 100 mM phosphate buffer at pH 7.4; format: physicochemical
[8] = test system: Trypanosoma brucei rhodesiense; experiment: Antitrypanosomal activity against bloodstream form of Trypanosoma brucei rhodesiense STIB900 infected in NMRI mouse assessed as suppression of parasitemia level in mouse tail blood at 10 mg/kg, ip qd for 4 consecutive days measured 5 days post infection; format: functional, organism-based; set-up: dose 10 mg/kg

SMILES	IC50 [1]	IC50 [3]	IC50 [2]	further results
CC(=O)Oc1ccc2c(c1)C(C)=CC(C)(C)N2Cc1ccc(C(C)C)cc1	0.97 µM	0.28 µM	10 µM	–
COc1cc(OC(C)=O)cc2c1N(Cc1ccccc1)C(C)(C)C=C2C	> 100 µM	–	–	–
CC(=O)Oc1cc2c(cc1-c1ccc(C(F)(F)F)cc1)N(Cc1ccccc1)C(C)(C)C=C2C	15 µM	9 µM	> 190 µM	–
CC(=O)Oc1cc(C)c2c(c1)C(C)=CC(C)(C)N2Cc1ccccc1	9.2 µM	43 µM	48 µM	–
CCOc1ccc2c(c1)C(C)=CC(C)(C)N2Cc1ccc(F)c(F)c1	–	140 µM	90 µM	Activity [6]: inactive; Activity [4]: inactive
N=C(N)c1ccc(/N=N/Nc2ccc(C(=N)N)cc2)cc1 [DIMINAZENE]	–	0.0058 µM	5 µM	Activity [8]: Active
CCOc1ccc2c(c1)C(C)=CC(C)(C)N2Cc1ccccc1	–	41 µM	97 µM	Activity [4]: inactive
CC(=O)Oc1ccc2c(c1)C(c1ccccc1)=CC(C)(C)N2Cc1ccccc1	20 µM	4.5 µM	49 µM	–
CC(=O)Oc1c(Cl)cc2c(c1Cl)C(C)=CC(C)(C)N2Cc1ccccc1	0.49 µM	0.072 µM	110 µM	–

More lines, main results first:

IC50 [1]	IC50 [3]	SMILES	IC50 [2]	further results
0.11 µM	–	Cc1ccc(C(=O)Nc2ccc(S(=O)(=O)O)c3cc(S(=O)(=O)O)cc(S(=O)(=O)O)c23)cc1NC(=O)c1cccc(NC(=O)Nc2cccc(C(=O)Nc3cc(C(=O)Nc4ccc(S(=O)(=O)O)c5cc(S(=O)(=O)O)cc(S(=O)(=O)O)c45)ccc3C)c2)c1 [SURAMIN]	–	–
0.058 µM	0.012 µM	CC(=O)Oc1ccc2c(c1)C(C)=CC(C)(C)N2Cc1ccccc1	18 µM	Activity ([4]; route intraperitoneal): 12.75 days
0.012 µM	0.0013 µM	N=C(N)c1ccc(OCCCCCOc2ccc(C(=N)N)cc2)cc1 [PENTAMIDINE]	25 µM	Activity [5]: Active
0.22 µM	0.042 µM	CC(=O)Oc1cc2c(cc1Cl)N(Cc1ccccc1)C(C)(C)C=C2C	22 µM	–
0.038 µM	0.013 µM	CC1=CC(C)(C)N(Cc2ccccc2)c2ccc(O)cc21.Cl	11 µM	Activity [6]: Active; Stability [7]: Unstable
0.031 µM	–	CC(=O)Oc1cc2c(cc1C)N(Cc1ccccc1)C(C)(C)C=C2C	–	–
0.079 µM	0.025 µM	CC(=O)Oc1ccc2c(c1)C(C)=CC(C)(C)N2Cc1ccc(F)c(F)c1	17 µM	–
0.045 µM	0.014 µM	COc1ccccc1CN1c2ccc(O)cc2C(C)=CC1(C)C.Cl	12 µM	Activity [6]: Active; Stability [7]: Unstable
0.041 µM	0.011 µM	COc1ccccc1CN1c2ccc(OC(C)=O)cc2C(C)=CC1(C)C	17 µM	Activity [6]: Active
0.068 µM	0.051 µM	CC1=CC(C)(C)N(Cc2ccc(F)c(F)c2)c2ccc(O)cc21	11 µM	–

From ChEMBL document CHEMBL1641541, “Synthesis and antitrypanosomal evaluation of derivatives of N-benzyl-1,2-dihydroquinolin-6-ols: Effect of core substitutions and salt formation” (Bioorg Med Chem, 2011)
